Values joined by “and” are separate entries in the source; they are usually repeats but may differ in a detail not shown here. Equal values may be shown once.
Conditions: Buoyancy - hydrostatic balance with magnetic suspension - one sinker

FCF [difluoromethane]
Conditions | mass density
215.35 K, 1103.8 kPa, Liquid | 1230.26 kg/m3
215.35 K, 1325.8 kPa, Liquid | 1230.63 kg/m3
215.36 K, 1538.7 kPa, Liquid | 1230.95 kg/m3
215.36 K, 1697.9 kPa, Liquid | 1231.2 kg/m3
215.37 K, 103.26 kPa, Liquid | 1228.62 kg/m3
215.37 K, 297.95 kPa, Liquid | 1228.9 kg/m3
215.37 K, 703.99 kPa, Liquid | 1229.57 kg/m3
215.39 K, 1295 kPa, Liquid | 1230.49 kg/m3
224.87 K, 174.37 kPa, Liquid | 1202.55 kg/m3
224.87 K, 584.91 kPa, Liquid | 1203.31 kg/m3
224.88 K, 1061.9 kPa, Liquid | 1204.12 kg/m3
224.89 K, 1060.1 kPa, Liquid | 1204.1 kg/m3
224.91 K, 1506.3 kPa, Liquid | 1204.87 kg/m3
234.46 K, 1590 kPa, Liquid | 1178.28 kg/m3
234.51 K, 797.4 kPa, Liquid | 1176.49 kg/m3
234.52 K, 405.74 kPa, Liquid | 1175.67 kg/m3
234.55 K, 274.67 kPa, Liquid | 1175.3 kg/m3
234.56 K, 1164.8 kPa, Liquid | 1177.09 kg/m3
235.12 K, 296.35 kPa, Liquid | 1173.64 kg/m3
235.12 K, 647.72 kPa, Liquid | 1174.42 kg/m3
235.12 K, 648.42 kPa, Liquid | 1174.42 kg/m3
235.12 K, 1119.6 kPa, Liquid | 1175.37 kg/m3
235.12 K, 1629.1 kPa, Liquid | 1176.43 kg/m3
235.13 K, 296.36 kPa, Liquid | 1173.65 kg/m3
235.13 K, 1583.2 kPa, Liquid | 1176.31 kg/m3
235.14 K, 1742.1 kPa, Liquid | 1176.61 kg/m3
244.28 K, 721.81 kPa, Liquid | 1147.83 kg/m3
244.28 K, 1218.8 kPa, Liquid | 1148.97 kg/m3
244.29 K, 432.84 kPa, Liquid | 1147.12 kg/m3
244.29 K, 1506.2 kPa, Liquid | 1149.63 kg/m3
244.3 K, 1507.8 kPa, Liquid | 1149.6 kg/m3
244.89 K, 745.03 kPa, Liquid | 1145.98 kg/m3
244.89 K, 1636.6 kPa, Liquid | 1148.09 kg/m3
244.9 K, 364.35 kPa, Liquid | 1145.04 kg/m3
244.9 K, 1266.5 kPa, Liquid | 1147.19 kg/m3
244.9 K, 1785 kPa, Liquid | 1148.39 kg/m3
244.91 K, 1786.1 kPa, Liquid | 1148.39 kg/m3
254.08 K, 382.25 kPa, Gas | 10.3656 kg/m3
254.09 K, 214.16 kPa, Gas | 5.5491 kg/m3
254.09 K, 313.9 kPa, Gas | 8.3508 kg/m3
254.1 K, 104.12 kPa, Gas | 2.6275 kg/m3
254.65 K, 795.59 kPa, Liquid | 1116.29 kg/m3
254.65 K, 1111.6 kPa, Liquid | 1117.17 kg/m3
254.65 K, 1794.7 kPa, Liquid | 1119.02 kg/m3
254.66 K, 487.53 kPa, Liquid | 1115.4 kg/m3
254.66 K, 1451 kPa, Liquid | 1118.05 kg/m3
254.66 K, 1795.2 kPa, Liquid | 1119 kg/m3
254.67 K, 1113.8 kPa, Liquid | 1117.12 kg/m3
254.67 K, 1449.1 kPa, Liquid | 1118.02 kg/m3
263.88 K, 107.72 kPa, Gas | 2.6075 kg/m3
263.88 K, 204.78 kPa, Gas | 5.0609 kg/m3
263.88 K, 306.27 kPa, Gas | 7.74 kg/m3
263.88 K, 401.96 kPa, Gas | 10.3885 kg/m3
263.88 K, 506.07 kPa, Gas | 13.4247 kg/m3
263.88 K, 571.82 kPa, Gas | 15.4369 kg/m3
263.89 K, 71.43 kPa, Gas | 1.7159 kg/m3
264.46 K, 1262.6 kPa, Liquid | 1086.13 kg/m3
264.46 K, 1771.5 kPa, Liquid | 1087.75 kg/m3
264.47 K, 883.24 kPa, Liquid | 1084.88 kg/m3
264.47 K, 1555.9 kPa, Liquid | 1087.04 kg/m3
264.47 K, 1797.3 kPa, Liquid | 1087.79 kg/m3
264.47 K, 1799.4 kPa, Liquid | 1087.82 kg/m3
264.48 K, 882.25 kPa, Liquid | 1084.85 kg/m3
264.48 K, 1561.7 kPa, Liquid | 1087.04 kg/m3
264.49 K, 616.31 kPa, Liquid | 1083.92 kg/m3
273.73 K, 101.73 kPa, Gas | 2.3681 kg/m3
273.73 K, 312.85 kPa, Gas | 7.5636 kg/m3
273.73 K, 513.88 kPa, Gas | 12.9426 kg/m3
273.73 K, 711.85 kPa, Gas | 18.7582 kg/m3
273.73 K, 817.04 kPa, Gas | 22.1108 kg/m3
273.74 K, 224.38 kPa, Gas | 5.3352 kg/m3
273.74 K, 416.77 kPa, Gas | 10.2856 kg/m3
273.74 K, 614.63 kPa, Gas | 15.8288 kg/m3
273.74 K, 771.81 kPa, Gas | 20.6433 kg/m3
273.74 K, 824.1 kPa, Gas | 22.3391 kg/m3
273.74 K, 876.3 kPa, Liquid | 1053.21 kg/m3
273.74 K, 1101.1 kPa, Liquid | 1054.06 kg/m3
273.75 K, 1351.5 kPa, Liquid | 1054.99 kg/m3
273.76 K, 1582.2 kPa, Liquid | 1055.81 kg/m3
283.52 K, 412.99 kPa, Gas | 9.7269 kg/m3
283.52 K, 614.51 kPa, Gas | 15.0118 kg/m3
283.52 K, 710.61 kPa, Gas | 17.6856 kg/m3
283.53 K, 101.75 kPa, Gas | 2.2806 kg/m3
283.53 K, 213.32 kPa, Gas | 4.8632 kg/m3
283.53 K, 312.42 kPa, Gas | 7.2368 kg/m3
283.53 K, 812.63 kPa, Gas | 20.6499 kg/m3
283.54 K, 502.33 kPa, Gas | 12.0197 kg/m3
283.54 K, 1013.2 kPa, Gas | 26.9253 kg/m3 and 26.9235 kg/m3
283.55 K, 911.64 kPa, Gas | 23.6652 kg/m3
283.55 K, 1562.5 kPa, Liquid | 1020.09 kg/m3
283.56 K, 1156 kPa, Liquid | 1018.14 kg/m3
283.56 K, 1382.8 kPa, Liquid | 1019.19 kg/m3
293.32 K, 107.46 kPa, Gas | 2.3235 kg/m3
293.32 K, 432.29 kPa, Gas | 9.7863 kg/m3
293.32 K, 546.17 kPa, Gas | 12.5808 kg/m3
293.32 K, 656.65 kPa, Gas | 15.3945 kg/m3
293.33 K, 1265.1 kPa, Gas | 33.2531 kg/m3
293.33 K, 1397.3 kPa, Gas | 37.8678 kg/m3
293.33 K, 2143.9 kPa, Liquid | 984.45 kg/m3
293.34 K, 760.28 kPa, Gas | 18.1362 kg/m3
293.34 K, 866.25 kPa, Gas | 21.0499 kg/m3
293.34 K, 968.81 kPa, Gas | 23.9856 kg/m3
293.34 K, 1066.3 kPa, Gas | 26.9025 kg/m3
293.34 K, 1161.5 kPa, Gas | 29.864 kg/m3
293.34 K, 1757.2 kPa, Liquid | 982.24 kg/m3
293.35 K, 1537.9 kPa, Liquid | 980.97 kg/m3
293.37 K, 323.39 kPa, Gas | 7.2059 kg/m3
293.38 K, 219.26 kPa, Gas | 4.8156 kg/m3

From the NIST ThermoML archive (doi:10.1016/j.jct.2014.06.023)
